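48-hour exposure; five concentrations; linearly interpolated endpoints. At the GI50, growth is halved. TGI: concentration producing complete growth inhibition.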
How the values were obtained:
Experiment in all cases: NCI-60 cell line screen, 48 h
[1] = system: 786-0 renal
[2] = system: A498 renal
[3] = system: A549 NSCLC
[4] = system: ACHN renal
[5] = system: BT-549 breast
[6] = system: CAKI-1 renal
[7] = system: CCRF-CEM leukemia
[8] = system: COLO 205 colon
[9] = system: DU-145 prostate
[10] = system: EKVX NSCLC
[11] = system: HCC-2998 colon
[12] = system: HCT-116 colon
[13] = system: HCT-15 colon
[14] = system: HL-60(TB) leukemia
[15] = system: HOP-62 NSCLC
[16] = system: HOP-92 NSCLC
[17] = system: HS 578T breast
[18] = system: HT29 colon
[19] = system: IGROV1 ovarian
[20] = system: K-562 leukemia
[21] = system: KM12 colon
[22] = system: LOX IMVI melanoma
[23] = system: M14 melanoma
[24] = system: MALME-3M melanoma
[25] = system: MCF7 breast
[26] = system: MDA-MB-231 breast
[27] = system: MDA-MB-435
[28] = system: MOLT-4 leukemia
[29] = system: NCI-H226 lung
[30] = system: NCI-H23 lung
[31] = system: NCI-H460 lung
[32] = system: NCI-H522 lung
[33] = system: NCI/ADR-RES ovarian
[34] = system: OVCAR-3 ovarian
[35] = system: OVCAR-4 ovarian
[36] = system: OVCAR-5 ovarian
[37] = system: OVCAR-8 ovarian
[38] = system: PC-3 prostate
[39] = system: RPMI-8226 leukemia
[40] = system: RXF 393 renal
[41] = system: SF-268 CNS
[42] = system: SF-295 CNS
[43] = system: SF-539 CNS
[44] = system: SK-MEL-2 melanoma
[45] = system: SK-MEL-28 melanoma
[46] = system: SK-MEL-5 melanoma
[47] = system: SK-OV-3 ovarian
[48] = system: SN12C renal
[49] = system: SNB-19 CNS
[50] = system: SNB-75 CNS
[51] = system: SR leukemia
[52] = system: SW-620 colon
[53] = system: T-47D breast
[54] = system: TK-10 renal
[55] = system: U251 CNS
[56] = system: UACC-257 melanoma
[57] = system: UACC-62 melanoma
[58] = system: UO-31 renal

For `CNC(=O)c1ccccc1Nc1cc(Nc2ccc(N3CCOCC3)cc2OC)ncc1C(F)(F)F`, the GI50 [1] was 4.12 µM, the TGI [1] was 34.6 µM and the GI50 [2] was 2.29 µM. It also gave a TGI [2] of 10.5 µM, a GI50 [3] of 1.7 µM and a TGI [3] of 22.7 µM. For the same compound, the GI50 [4] was 5.27 µM, the TGI [4] was greater than 84.5 µM and the GI50 [5] was 8.14 µM. It also gave a TGI [5] of 41.8 µM, a GI50 [6] of 1.64 µM and a TGI [6] greater than 54.6 µM. It also gave a GI50 [7] of 8.49 µM, a TGI [7] of 97.8 µM and a GI50 [8] of 0.161 µM. The TGI [8] was 1.37 µM, the GI50 [9] was 3.4 µM and the TGI [9] was greater than 81.5 µM. For the same compound, the GI50 [10] was 0.341 µM, the TGI [10] was 64.8 µM and the GI50 [11] was 1.68 µM. The TGI [11] was 62.4 µM, the GI50 [12] was 1.94 µM and the TGI [12] was 19.1 µM. It also gave a GI50 [13] of 3.09 µM, a TGI [13] greater than 95.7 µM and a GI50 [14] of 1 µM. For the same compound, the TGI [14] was 24.8 µM, the GI50 [15] was 0.296 µM and the TGI [15] was 52.5 µM. For the same compound, the GI50 [16] was 0.011 µM, the TGI [16] was 0.172 µM and the GI50 [17] was 13.5 µM. For the same compound, the TGI [17] was greater than 87.6 µM, the GI50 [18] was 0.333 µM and the TGI [18] was 15.4 µM. The GI50 [19] was 2.28 µM, the TGI [19] was greater than 100 µM and the GI50 [20] was 5 µM. For the same compound, the TGI [20] was greater than 100 µM, the GI50 [21] was 1.18 µM and the TGI [21] was 11.6 µM. For the same compound, the GI50 [22] was 1.45 µM, the TGI [22] was 18.5 µM and the GI50 [23] was 0.739 µM. For the same compound, the TGI [23] was 32.2 µM, the GI50 [24] was 0.264 µM and the TGI [24] was 63.6 µM. For the same compound, the GI50 [25] was 0.296 µM, the TGI [25] was 34.5 µM and the GI50 [26] was 2.7 µM. It also gave a TGI [26] of 47.1 µM, a GI50 [27] of 0.815 µM and a TGI [27] greater than 94.3 µM. The GI50 [28] was 6.64 µM, the TGI [28] was greater than 86.8 µM and the GI50 [29] was 2.42 µM. For the same compound, the TGI [29] was 55.6 µM, the GI50 [30] was 0.757 µM and the TGI [30] was 60.7 µM. It also gave a GI50 [31] of 2.54 µM, a TGI [31] of 19.4 µM and a GI50 [32] of 7.67 µM. The TGI [32] was 37.6 µM, the GI50 [33] was 2.82 µM and the TGI [33] was greater than 68.3 µM. The GI50 [34] was 13.1 µM, the TGI [34] was greater than 85.3 µM and the GI50 [35] was 3.24 µM. For the same compound, the TGI [35] was greater than 100 µM, the GI50 [36] was 0.637 µM and the TGI [36] was greater than 100 µM. The GI50 [37] was 6.88 µM, the TGI [37] was greater than 100 µM and the GI50 [38] was 18.6 µM. For the same compound, the TGI [38] was greater than 100 µM, the GI50 [39] was 3.61 µM and the TGI [39] was 48 µM. For the same compound, the GI50 [40] was 3.08 µM, the TGI [40] was 20 µM and the GI50 [41] was 4.86 µM. For the same compound, the TGI [41] was 80.9 µM, the GI50 [42] was 1.07 µM and the TGI [42] was 41.8 µM. For the same compound, the GI50 [43] was 6.37 µM, the TGI [43] was 34 µM and the GI50 [44] was 3.82 µM. It also gave a TGI [44] of 24.9 µM, a GI50 [45] of 1.85 µM and a TGI [45] greater than 83.8 µM. It also gave a GI50 [46] of 4.55 µM, a TGI [46] of 22.1 µM and a GI50 [47] of 5.44 µM. The TGI [47] was 57.6 µM, the GI50 [48] was 12.2 µM and the TGI [48] was greater than 81.5 µM. It also gave a GI50 [49] of 15.6 µM, a TGI [49] greater than 100 µM and a GI50 [50] of 1.31 µM. It also gave a TGI [50] of 43.5 µM, a GI50 [51] of 0.248 µM and a TGI [51] of 12.4 µM. The GI50 [52] was 1.92 µM, the TGI [52] was greater than 65.6 µM and the GI50 [53] was 14.5 µM. It also gave a TGI [53] of 59.8 µM, a GI50 [54] of 1.23 µM and a TGI [54] of 40.2 µM. It also gave a GI50 [55] of 10.4 µM, a TGI [55] greater than 87.6 µM and a GI50 [56] of 0.346 µM. It also gave a TGI [56] of 63.7 µM, a GI50 [57] of 0.419 µM and a TGI [57] of 20.4 µM. It also gave a GI50 [58] of 1.91 µM and a TGI [58] of 17.8 µM.
